Some test systems named below: DU-145; LOX IMVI; SN12C; 786-0; SW-620; M14; NCI-H460; HCT-116; T47D; MOLT-4; MDA-N; K562; MCF7; MDA-MB-435; SK-OV-3; HOP-62; UACC-62; NCI-H522; OVCAR-3.
Common to all, as to experiment: inhibition of tumour cell growth, NCI panel, 48 h

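Five concentrations, 48 hours, 96-well plates. Here, GI50 denotes the concentration required for 50% inhibition of growth.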 Active and inactive are the calls of the source. Cut-off read from the data, not from the text of the source: active = GI50 up to about 1.1 µM and inactive = higher.

For the molecule `N#Cc1c(N2CCCC2)nsc1Nc1ccccc1`, the GI50 in the assay on DU-145, in the assay with LOX IMVI, in the assay on SN12C, in the assay with 786-0, with SW-620 and with M14 was > 100 µM (inactive) in each case. Further, the GI50 in the assay on NCI-H460, in the assay on HCT-116, in the assay with T47D, in the assay with MOLT-4, with MDA-N and in the assay with K562 was > 100 µM (inactive) each time.

As to `COc1ccc2c3c([nH]c2c1)CCN(Cc1ccccc1)C3`, the GI50 in the assay on DU-145 was > 100 µM (inactive); with MCF7, 17.5 µM (inactive); with MDA-MB-435, 23.6 µM (inactive); in the assay with LOX IMVI it was 15.8 µM (inactive); in the assay with SK-OV-3, > 100 µM (inactive); with SN12C, 34 µM (inactive). In addition, the GI50 in the assay on 786-0 is > 10 µM (inactive); in the assay with SW-620, 23.2 µM (inactive); with M14 it was 16.2 µM (inactive); in the assay with NCI-H460, 17 µM (inactive); with HOP-62 it was 21.8 µM (inactive); with HCT-116 it was 24 µM (inactive). The GI50 with UACC-62 was 31.8 µM (inactive); in the assay with T47D, 19.4 µM (inactive); with MOLT-4, 24.8 µM (inactive); in the assay on K562, 21.4 µM (inactive).

`COC1CC(C)C(OC)c2cc(O)cc(c2O)NC(=O)/C(C)=C/C=C\C(C)C(OC(N)=O)/C(C)=C\C(C)C1OC` (configuration not stated): the GI50 with DU-145 was 0.231 µM (active); in the assay with NCI-H522, 0.0863 µM (active); in the assay on MCF7, 0.125 µM (active); in the assay with MDA-MB-435, 0.0998 µM (active); in the assay on LOX IMVI it was 0.471 µM (active); in the assay on SK-OV-3, 0.292 µM (active). The GI50 is 0.36 µM (active) in the assay on SN12C; 2.03 µM (inactive) with 786-0; 0.082 µM (active) in the assay with SW-620; 1.02 µM (active) in the assay with M14; 0.203 µM (active) in the assay with NCI-H460; 0.579 µM (active) in the assay on HOP-62. The GI50 with HCT-116 was 0.297 µM (active); in the assay on UACC-62 it was 0.274 µM (active); in the assay on T47D, 0.266 µM (active); in the assay on MOLT-4, 0.083 µM (active); in the assay on MDA-N, 0.144 µM (active).

Regarding `O=[PH](O)c1cc2ccccc2c2ccccc12`, the GI50 with OVCAR-3, with NCI-H522, in the assay on LOX IMVI, with SK-OV-3, in the assay with SN12C and with 786-0 was > 100 µM (inactive) in each case. Besides, the GI50 in the assay with SW-620, with M14, with NCI-H460, with HOP-62, with HCT-116 and in the assay on UACC-62 was > 100 µM (inactive) throughout. In addition, the GI50 with MOLT-4 and with K562 was > 100 µM (inactive) each time.

In the case of `COC[C@H]1OC(=O)c2coc3c2[C@@]1(C)C1=C(C3=O)[C@@H]2CCC(=O)[C@@]2(C)C[C@H]1OC(C)=O` [WORTMANNIN], the GI50 was 3.34 µM (inactive) with DU-145; 4.65 µM (inactive) in the assay on OVCAR-3; 13.8 µM (inactive) with NCI-H522; 5.66 µM (inactive) in the assay on MCF7; 3.25 µM (inactive) with MDA-MB-435; 3.66 µM (inactive) in the assay with LOX IMVI. The GI50 in the assay on SN12C is 7.14 µM (inactive); in the assay on 786-0 it was 8.43 µM (inactive); with SW-620, 17.7 µM (inactive); in the assay with M14, 2.15 µM (inactive); in the assay with NCI-H460 it was 8.95 µM (inactive); with HOP-62, 3.05 µM (inactive). Moreover, the GI50 in the assay on HCT-116 was 13.4 µM (inactive); in the assay on UACC-62 it was 1.31 µM (inactive); in the assay on T47D it was 0.637 µM (active); in the assay on MOLT-4 it was 2.09 µM (inactive); in the assay on MDA-N, 15.1 µM (inactive); in the assay with K562 it was 37.2 µM (inactive).
